Here are results for 13 compounds from patent US5811452A, “Taxoid reversal agents for drug-resistance in cancer chemotherapy and pharmaceutical compositions thereof” (The Research Foundation of State University of New York, priority 1997, dated 1998).

pIC50: −log10 of the molar value. Where two headings read alike, the source gives them in different places.

The test system of experiment [1] is drug-resistant breast cancer cells MCF7-R. The experiment in a line: MDR reversal: cytostatic activity in combination with paclitaxel or doxorubicin. Format: cell-based, human. The conditions noted are these: for % IC50 reduction (taxoid + Paclitaxel): taxoid 1 μM + paclitaxel.
Procedure: ^a Treatment consists of concurrent exposure of MCF7R cells to
reversing agent (1 μM) for 72 h in vitro.
Experiment [2] concerns MCF7 (mammary carcinoma). The experiment in a line: Cytotoxicity evaluation (cell growth inhibition, SRB, 72 h). The settings on record: read-out: IC50, growth of human tumor cell line MCF7 (breast). Format: cell-based. Here is the method: (§1) Taxoids, thus synthesized, were evaluated for their cytotoxicity against human tumor cell line, A2780 (ovarian carcinoma), A2780-DX5 (ovarian carcinoma resistant to doxorubicin), MCF7 (mammary carcinoma) or MCF7-R (mammary carcinoma cells resistant to doxorubicin), after 72 hours drug exposure according to the methods of Skehon, et al., "J. Nat. Cancer Inst. 82, 1107, 1990". […] Lower numbers indicate higher potency. The data represent the means values of at least three separate experiments. Lower numbers indicate stronger cytotoxicity.
(§2) Assessment of cytotoxicity, i.e., cell growth inhibition, was determined according to the methods of Skehan, et al. as discussed in J. Nat. Cancer Inst. 82, 1107, 1990. Briefly, cells were plated between 400 and 1200 cells/well in 96 well plates and incubated at 37° C. for 15-18 h prior to drug addition to allow attachment of cells. Compounds tested were solubilized in 100% DMSO and further diluted in RPMI-1640 containing 10 mM HEPES. Each cell line was treated with 10 concentrations of compounds (5 log range). After a 72 h incubation, […] of ice-cold 50% TCA was added to each well and incubated for 1 h at 4° C. Plates were then washed 5 times with tap water to remove TCA, low-molecular-weight metabolites and serum proteins. Sulforhodamine B (SRB) (0.4%, […]) was added to each well. Following a 5 minute incubation at room temperature, plates were rinsed 5 times with 0.1% acetic acid and air dried. Bound dye was solubilized with 10 mM Tris Base (pH 10.5) for 5 min on a gyratory shaker. Optical density was measured at 570 nm.

Experiment [3] has as its system MCF7-R (mammary carcinoma cells resistant to doxorubicin). The experiment is described as above. Type of experiment: cell-based. The conditions noted are these: read-out: IC50, growth of human tumor cell line MCF7-R (breast). As for the experimental part: as §1, §2
The subject of experiment [4] is A2780-DX5 (ovarian carcinoma resistant to doxorubicin). The experiment is described as above. Format: cell-based. The settings on record: read-out: IC50, growth of human tumor cell line A2780-DX5 (ovarian). As for the experimental part:
as §1, §2

For experiment [5], the system named is A2780 (ovarian carcinoma). The description is as above. Type of experiment: cell-based. The settings on record: read-out: IC50, growth of human tumor cell line A2780 (ovarian). As for the experimental part: as §1, §2
Experiment [6] relates to P-glycoprotein mdr 1a. The settings on record: Taxol-resistant T1 cells; cited from earlier work.
Experiment [7] deals with P-glycoprotein mdr 1b. The conditions noted are these: cited from earlier work.
Experiment [8] concerns J7 (parent) cells. The settings on record: cited from earlier work.
Experiment [9] concerns microtubules. The settings on record: cited from earlier work.
The mark [10] stands for this setting: read-out: IC50 (taxoid + Paclitaxel), paclitaxel in presence of taxoid reversing agent (1 μM), 72 h.
The mark [11] stands for this setting: 72 h exposure, doxorubicin-resistant.
Setting [12] is: 72 h exposure, mean of at least three experiments.
Where [13] appears, read: Homo sapiens, MCF7R, without reversing agent, 72 h, read-out: IC50 of anticancer drug alone.
Setting [14] is: Homo sapiens, 72 h exposure, doxorubicin-resistant.
[15] abbreviates: Homo sapiens, MCF7, 72 h exposure.
Setting [16] is: Homo sapiens, MCF7R, 72 h exposure, doxorubicin-resistant.
Where [17] appears, read: Homo sapiens, A2780, 72 h exposure, mean of at least three experiments.

As a reminder, the pIC50 is −log10 of the IC50, conventionally taken in molar units.

Regarding “7,10-Bis[3-(4-benzoylphenyl)prop-2-enoyl]-10-deacetylbaccatin III [SB-RA-4102]”, the results for the pIC50 in [1] (setting [10]), in experiment [2] (72 h exposure) and in experiment [3] (setting [11]) were 8.57, less than 5.00 and less than 5.00, respectively. Besides, in [1] (72 h), the “% IC50 reduction (taxoid + Paclitaxel)” value came out at 99.7%.

As to “7-[3-(2-Naphtyl)propanoyl]-13-acetylbaccatin III [SB-RA-30012]”, the pIC50 is 8.24 in experiment [1] (setting [10]), less than 5.00 in experiment [2] (72 h exposure) and less than 5.00 in experiment [3] (setting [11]). Further, the “% IC50 reduction (taxoid + Paclitaxel)” value in experiment [1] (72 h) is 99.3%.

On to “13-(4-Benzoylcinnamoyl)-7,10-bis(2,2,2-trichloroethoxycarbonyl)baccatin III [SB-RA-110]”, for which the pIC50 in [4] (setting [11]), in experiment [2] (72 h exposure), in [3] (setting [11]) and in experiment [5] (setting [12]) was less than 5.00 each time.

Consider `COc1cccc2c1C(=O)c1c(O)c3c(c(O)c1C2=O)C[C@@](O)(C(=O)CO)C[C@@H]3O[C@H]1C[C@H](N)[C@H](O)[C@H](C)O1` [Doxorubicin, reference compound], for which the pIC50 in experiment [1] (setting [13]) was 5.72; in experiment [4] (Homo sapiens, 72 h) it was 6.45; in experiment [2] (Homo sapiens, MCF7, 72 h), 7.77; in [3] (Homo sapiens, MCF7R, 72 h), 5.72; in [5] (Homo sapiens, A2780, 72 h), 8.30.

On to `CC(=O)O[C@H]1C(=O)[C@@]2(C)[C@H]([C@H](OC(=O)c3ccccc3)[C@]3(O)C[C@H](OC(=O)[C@H](O)[C@@H](NC(=O)c4ccccc4)c4ccccc4)C(C)=C1C3(C)C)[C@]1(OC(C)=O)CO[C@@H]1C[C@@H]2O` [Paclitaxel, reference compound], for which the pIC50 is 6.07 in experiment [1] (Homo sapiens, MCF7R, read-out: IC50 of paclitaxel, taxoid at 1 or 3 μM (from 860 to 42~1.6)); 6.07 in experiment [1] (setting [13]); 8.77 in experiment [2] (Homo sapiens, MCF7, 72 h); 6.07 in [3] (Homo sapiens, MCF7R, 72 h).

As to `CC(=O)O[C@@]12CO[C@@H]1C[C@H](O)[C@@]1(C)C(=O)[C@H](O)C3=C(C)[C@@H](OC(=O)/C=C/c4ccc5ccccc5c4)C[C@@](O)([C@@H](OC(=O)c4ccccc4)[C@H]21)C3(C)C` [SB-RA-2001, 13-[3-(2-Naphthyl)prop-2-enoyl]-10-deacetylbaccatin III], the negative-log IC50 (pIC50) in [4] (setting [11]) was 5.42; in experiment [2] (72 h exposure), 5.70; in [3] (setting [11]) it was 5.30; in experiment [5] (setting [12]), 5.59.

With `CC(=O)O[C@@]12CO[C@@H]1C[C@H](O)[C@@]1(C)C(=O)[C@H](OC(=O)/C=C/c3ccc(C(=O)c4ccccc4)cc3)C3=C(C)[C@@H](O)C[C@@](O)([C@@H](OC(=O)c4ccccc4)[C@H]21)C3(C)C` [SB-RA-4001, 10-[(4-Benzoyl)cinnamoyl]-10-deacetylbaccatin III], the “% IC50 reduction (taxoid + Paclitaxel)” value in [1] (72 h) came out at 95%. Moreover, the pIC50 is 5.00 in [4] (setting [14]), 5.07 in experiment [2] (setting [15]), less than 5.00 in experiment [3] (setting [16]) and 5.10 in experiment [5] (setting [17]).

As to `CC(=O)O[C@H]1C(=O)[C@]2(C)[C@@H](OC(=O)c3ccc4ccccc4c3)C[C@H]3OC[C@@]3(OC(C)=O)[C@H]2[C@H](OC(=O)c2ccccc2)[C@]2(O)C[C@H](O)C(C)=C1C2(C)C` [SB-RA-30001, 7-(Naphthalene-2-carbonyl)baccatin III], in experiment [1] (72 h), the “% IC50 reduction (taxoid + Paclitaxel)” value is reported as 97.5%. Moreover, the figures for the pIC50 in experiment [2] (setting [15]) and in experiment [3] (setting [16]) were 5.28 and 4.96, respectively.

`CC(=O)O[C@H]1C(=O)[C@]2(C)[C@@H](OC(=O)/C=C/c3ccc4ccccc4c3)C[C@H]3OC[C@@]3(OC(C)=O)[C@H]2[C@H](OC(=O)c2ccccc2)[C@]2(O)C[C@H](O)C(C)=C1C2(C)C` [SB-RA-30011, 7-[3-(2-naphthyl)-2-propenoyl]baccatin III]: in experiment [1] (1 μM taxoid), the “enhancement of the tumor growth inhibitory activity of doxorubicin” value was determined as 92%. In addition, in [1] (taxoid 1 μM + doxorubicin, 72 h), the “% IC50 reduction (taxoid + Doxorubicin)” value came to 92%. The “% IC50 reduction (taxoid + Paclitaxel)” value in [1] (72 h) is given as 96%. The pIC50 in [4] (setting [14]) was 5.17; in experiment [2] (setting [15]), 5.33; in [3] (setting [16]) it was 5.10; in experiment [5] (setting [17]) it was 5.20.

With `CC(=O)O[C@H]1C(=O)[C@]2(C)[C@@H](OC(=O)CCc3ccc4ccccc4c3)C[C@H]3OC[C@@]3(OC(C)=O)[C@H]2[C@H](OC(=O)c2ccccc2)[C@]2(O)C[C@H](O)C(C)=C1C2(C)C` [SB-RA-30021, 7-[3-(2-Naphthyl)propanoyl]baccatin III], the “% IC50 reduction (taxoid + Paclitaxel)” value in experiment [1] (72 h) was 96%. For the same compound, the pIC50 in experiment [4] (setting [14]) was 5.28; in experiment [2] (setting [15]), 5.31; in experiment [3] (setting [16]) it was 5.30; in [5] (setting [17]), 5.24.

For the compound `CC(=O)O[C@H]1C(=O)[C@]2(C)[C@@H](OC(=O)/C=C/c3ccc(C(=O)c4ccccc4)cc3)C[C@H]3OC[C@@]3(OC(C)=O)[C@H]2[C@H](OC(=O)c2ccccc2)[C@]2(O)C[C@H](O)C(C)=C1C2(C)C` [SB-RA-31011, 7-[4-Benzoylcinnamoyl]baccatin III], the “% IC50 reduction (taxoid + Paclitaxel)” value in experiment [1] (72 h) was 99.8%. Also, the pIC50 was 4.96 in experiment [2] (setting [15]) and less than 5.00 in experiment [3] (setting [16]).

In the case of `CC(=O)O[C@H]1C(=O)[C@]2(C)[C@@H](OC(=O)/C=C/c3ccc(C(=O)c4ccccc4)cc3)C[C@H]3OC[C@@]3(OC(C)=O)[C@H]2[C@H](OC(=O)c2ccccc2)[C@]2(O)C[C@H](OC(C)=O)C(C)=C1C2(C)C` [SB-RA-31012], the “% IC50 reduction (taxoid + Paclitaxel)” value in experiment [1] (72 h) was 99.7%. The negative logarithm of the IC50 (pIC50) in [2] (setting [15]) and in [3] (setting [16]) was less than 5.00 each time.

As for `CC(=O)O[C@H]1C(=O)[C@@]2(C)[C@H]([C@H](OC(=O)c3ccccc3)[C@]3(O)C[C@H](OC(=O)[C@H](O)[C@@H](NC(=O)CCc4ccc(C(=O)c5ccccc5)cc4)c4ccccc4)C(C)=C1C3(C)C)[C@]1(OC(C)=O)CO[C@@H]1C[C@@H]2O` [SB-T-5101], the “binding to P-glycoprotein mdr 1a” value in [6] is “binds to both mdr 1a (major) and mdr 1b (minor) in T1 cells”. Besides, the “binding to P-glycoprotein mdr 1b” value is “binds to both mdr 1a (major) and mdr 1b (minor) in T1 cells” in [7] (Taxol-resistant T1 cells); “only binds to mdr 1b in V1 cells” in experiment [7] (vinblastine-resistant V1 cells). Besides, the “photoaffinity labeling of non-drug resistant cells” value in [8] is reported as “no photoaffinity labeling is observed”. Moreover, the binding to microtubules entry in [9] is listed as “binds to microtubules as expected”.
